In patent publication US12600714B2, “Substituted pyrazinecarboxamide compounds for treating diseases related to EGFR mutation” (WIGEN BIOMEDICINE TECHNOLOGY (SHANGHAI) CO., LTD., priority 2020, dated 2026):

System: A431 (EGFR WT) cells
Experiment: Antiproliferative activity against A431 (EGFR WT) cells, Cell Titer Glow
Type: cell-based
Conditions: Homo sapiens, A-431, 72 h; three days after addition of compounds; read-out: Antiproliferative activity A431 wild-type (WT) IC50
Experimental: (§1) Antiproliferative Activity of the Compounds Disclosed Herein Against Ba/F3 (EGFR^del19/T790M/C797S) Triple-Mutant Cells and A431 (EGFR WT) Cells
(§2) • 3000 Ba/F3 cells carrying EGFR (del19/T790M/C797S) or 2000 A431 cells were seeded in a 384-well plate. After one day, serially diluted compounds were added (up to 500 nM for Ba/F3 cells and up to 10 μM for A431 cells). Three days after the addition of the compounds, Cell Titer Glow was added to evaluate cell growth and the percentage cell growth inhibition by the compounds and the IC50 values were calculated.

IC50 [nM]	Structure (SMILES)
2000	CO[C@H]1CC[C@H](Nc2nc(Nc3ccc(N4CCC(N5CCN(C)CC5)CC4)cc3)c(C(N)=O)nc2-c2ccccc2)CC1 [compound 115]
1500	CN1CCN(C2CCN(c3ccc(Nc4nc(NC5CCOCC5)c(-c5ccccc5N(C)C)nc4C(N)=O)cc3)CC2)CC1 [compound 85]
1700	CN1CCN(C2CCN(c3ccc(Nc4nc(NC5CCOCC5)c(-c5cccc(N(C)C)c5)nc4C(N)=O)cc3)CC2)CC1 [compound 86]
520	CCc1cc(Nc2nc(NC3CCOCC3)c(-c3cccc4[nH]ccc34)nc2C(N)=O)ccc1N1CCC(N2CCN(C)CC2)CC1 [compound 515]
250	Cc1cc(Nc2nc(NC3CCOCC3)c(-c3ccnc4[nH]ccc34)nc2C(N)=O)ccc1N1CCC(N2CCN(C)CC2)CC1 [compound 514]
560	Cc1cc(Nc2nc(NC3CCOCC3)c(-c3cccc4[nH]ccc34)nc2C(N)=O)ccc1N1CCC(N2CCN(C)CC2)CC1 [compound 513]
2100	Cc1cnccc1-c1nc(C(N)=O)c(Nc2ccc(N3CCC(N4CCN(C)CC4)CC3)cc2)nc1NC1CCOCC1 [compound 74]
1700	Cc1cc(Nc2nc(NC3CCOCC3)c(-c3ccncc3)nc2C(N)=O)ccc1N1CCN(C)CC1 [compound 148]

Target: Ba/F3 (EGFR^del19/T790M/C797S) triple-mutant cells (Homo sapiens, UniProt P00533, T790M/C797S, cells depend on it, form not given)
Experiment: Antiproliferative activity against Ba/F3 (EGFR del19/T790M/C797S) triple-mutant cells, Cell Titer Glow
Type: cell-based
Conditions: three days after addition of compounds; read-out: Antiproliferative activity BaF3(EGFR^del19/T790M/C797S) IC50
Experimental: as §1, §2

Sequence of Ba/F3 (EGFR^del19/T790M/C797S) triple-mutant cells (P00533 with tags, fused parts or gaps DEL746-750/T790M/C797S, form open): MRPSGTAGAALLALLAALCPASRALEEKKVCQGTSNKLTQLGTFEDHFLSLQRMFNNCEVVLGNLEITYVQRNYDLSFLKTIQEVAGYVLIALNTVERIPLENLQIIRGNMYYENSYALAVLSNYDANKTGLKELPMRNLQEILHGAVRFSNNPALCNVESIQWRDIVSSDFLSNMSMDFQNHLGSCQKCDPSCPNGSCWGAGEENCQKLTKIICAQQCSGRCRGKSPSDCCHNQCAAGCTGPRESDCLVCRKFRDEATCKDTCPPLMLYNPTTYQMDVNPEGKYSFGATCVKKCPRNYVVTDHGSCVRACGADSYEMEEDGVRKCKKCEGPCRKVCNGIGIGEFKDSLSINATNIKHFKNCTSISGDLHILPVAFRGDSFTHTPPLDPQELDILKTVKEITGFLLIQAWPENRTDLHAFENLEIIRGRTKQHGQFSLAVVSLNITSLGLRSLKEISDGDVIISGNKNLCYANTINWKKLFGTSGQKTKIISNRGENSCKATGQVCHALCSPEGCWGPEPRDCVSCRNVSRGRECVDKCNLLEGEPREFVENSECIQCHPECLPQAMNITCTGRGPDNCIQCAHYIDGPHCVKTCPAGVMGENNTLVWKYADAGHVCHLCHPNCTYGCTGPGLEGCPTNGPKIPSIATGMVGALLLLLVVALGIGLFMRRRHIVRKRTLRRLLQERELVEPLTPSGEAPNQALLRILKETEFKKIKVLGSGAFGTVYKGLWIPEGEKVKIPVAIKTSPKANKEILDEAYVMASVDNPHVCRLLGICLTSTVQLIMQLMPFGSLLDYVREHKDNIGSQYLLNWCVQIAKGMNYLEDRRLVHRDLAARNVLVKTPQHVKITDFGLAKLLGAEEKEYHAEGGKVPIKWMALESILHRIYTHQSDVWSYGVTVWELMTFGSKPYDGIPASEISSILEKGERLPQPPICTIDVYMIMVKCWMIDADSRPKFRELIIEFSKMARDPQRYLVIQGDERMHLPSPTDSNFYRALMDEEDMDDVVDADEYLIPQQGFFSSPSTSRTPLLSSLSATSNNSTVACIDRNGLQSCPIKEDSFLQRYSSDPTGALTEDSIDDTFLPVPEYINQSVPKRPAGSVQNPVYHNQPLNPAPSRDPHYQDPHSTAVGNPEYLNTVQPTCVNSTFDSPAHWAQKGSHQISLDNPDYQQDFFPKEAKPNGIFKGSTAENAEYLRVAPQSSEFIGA

GI50 [nM]	Structure (SMILES)
214	CO[C@H]1CC[C@H](Nc2nc(Nc3ccc(N4CCC(N5CCN(C)CC5)CC4)cc3)c(C(N)=O)nc2-c2ccccc2)CC1 [compound 115]
357	CN1CCN(C2CCN(c3ccc(Nc4nc(NC5CCOCC5)c(-c5ccccc5N(C)C)nc4C(N)=O)cc3)CC2)CC1 [compound 85]
21	CN1CCN(C2CCN(c3ccc(Nc4nc(NC5CCOCC5)c(-c5cccc(N(C)C)c5)nc4C(N)=O)cc3)CC2)CC1 [compound 86]
42	CCc1cc(Nc2nc(NC3CCOCC3)c(-c3cccc4[nH]ccc34)nc2C(N)=O)ccc1N1CCC(N2CCN(C)CC2)CC1 [compound 515]
48	Cc1cc(Nc2nc(NC3CCOCC3)c(-c3ccnc4[nH]ccc34)nc2C(N)=O)ccc1N1CCC(N2CCN(C)CC2)CC1 [compound 514]
57	Cc1cc(Nc2nc(NC3CCOCC3)c(-c3cccc4[nH]ccc34)nc2C(N)=O)ccc1N1CCC(N2CCN(C)CC2)CC1 [compound 513]
> 100	Cc1cnccc1-c1nc(C(N)=O)c(Nc2ccc(N3CCC(N4CCN(C)CC4)CC3)cc2)nc1NC1CCOCC1 [compound 74]
68	Cc1cc(Nc2nc(NC3CCOCC3)c(-c3ccncc3)nc2C(N)=O)ccc1N1CCN(C)CC1 [compound 148]

System: EGFR (del19/T790M/C797S)
Experiment: HTRF inhibitory activity assay against EGFR (del19/T790M/C797S) enzyme
Type: biochemical
Conditions: not given
Experimental: Inhibitory Activity Assay of the Compounds Disclosed Herein Against EGFR (del19/T790M/C797S), EGFR (L858R/T790M/C797S) or EGFR (WT) Enzymes
The inhibitory effects of the compounds against EGFR (del19/T790M/C797S), EGFR (L858R/T790M/C797S) or EGFR (WT) enzyme activity was determined by using HTRF. The procedures are as follows:
The WT or mutant EGFR proteins were incubated with a serially diluted compounds at 28° C. for 10 min followed by addition of biotin-labeled general tyrosine kinase (TK) substrate and ATP. The mixture was incubated at room temperature for 40 min for reaction. After the termination of the reaction, an Eu3+-Cryptate-labeled antibody against TK and streptavidin-XL665 were added and the mixture was incubated at room temperature for 60 min. The luminescences at 615 nm and 665 nm were detected and the ratio of 665/615 was calculated to quantify the level of TK substrate phosphorylation. Inhibition % and IC50 of the compounds were calculated relative to the control group.

Structure (SMILES)	EGFR (del19/T790M/C797S) inhibition (%) (0.3 nM compound)
CN1CCN(C2CCN(c3ccc(Nc4nc(NC5CCC5)c(-c5ccccc5)nc4C(N)=O)cc3)CC2)CC1 [compound 30]	++ (++ indicates an inhibition from 20% to 50%)
CN1CCN(C2CCN(c3ccc(Nc4nc(NC5CC6(COC6)C5)c(-c5cc[nH]n5)nc4C(N)=O)cc3F)CC2)CC1 [compound 628]	++ (++ indicates an inhibition from 20% to 50%)
CN1CCC(Nc2nc(Nc3ccc(N4CCC(N5CCN(C)CC5)CC4)cc3)c(C(N)=O)nc2-c2ccccc2)CC1 [compound 7]	+ (+ indicates an inhibition less than or equal to 20%)
Cc1cc(-c2nc(C(N)=O)c(Nc3ccc(N4CCC(N5CCN(C)CC5)CC4)c(C)c3)nc2NC2CCOCC2)ccn1 [compound 154]	++ (++ indicates an inhibition from 20% to 50%)
COc1nc(Nc2ccc(N3CCC(N4CCN(C)CC4)CC3)cc2)c(C(N)=O)nc1-c1ccccc1 [compound 19, 5-methoxy-3-((4-(4-(4-methylpiperazin-1-yl)piperidin-1-yl)phenyl)amino)-6-phenylpyrazine-2-carboxamide]	+ (+ indicates an inhibition less than or equal to 20%)
CC(C)Nc1nc(Nc2ccc(N3CCC(N4CCN(C)CC4)CC3)c(F)c2)c(C(N)=O)nc1-c1cc[nH]n1 [compound 622]	+++ (+++ indicates an inhibition greater than 50%.)
CN1CCN(C2CCN(c3ccc(Nc4nc(NC5CCOCC5)c(-c5ccc(C#N)cc5)nc4C(N)=O)cc3)CC2)CC1 [compound 53]	+ (+ indicates an inhibition less than or equal to 20%)
CN1CCN(C2CCN(c3ccc(Nc4nc(NC5CCC(O)C5)c(-c5cc[nH]n5)nc4C(N)=O)cc3)CC2)CC1 (stereo not drawn) [compound 617]	++ (++ indicates an inhibition from 20% to 50%)
CC(C)Nc1nc(Nc2ccc(N3CCC(N4CCN(C)CC4)CC3)c(F)c2)c(C(N)=O)nc1-c1cccc2[nH]ccc12 [compound 530]	+++ (+++ indicates an inhibition greater than 50%.)
CN1CCN(C2CCN(c3ccc(Nc4nc(NCCC(C)(C)O)c(-c5ccccc5)nc4C(N)=O)cc3)CC2)CC1 [compound 22]	+ (+ indicates an inhibition less than or equal to 20%)
CN1CCN(C2CCN(c3ccc(Nc4nc(NC5CCOCC5)c(-c5ccccc5Cl)nc4C(N)=O)cc3)CC2)CC1 [compound 63]	+ (+ indicates an inhibition less than or equal to 20%)
CN1CCN(C2CCN(c3ccc(Nc4nc(NC5CC6(COC6)C5)c(-c5ccnc6[nH]ccc56)nc4C(N)=O)cc3F)CC2)CC1 [compound 630]	+++ (+++ indicates an inhibition greater than 50%.)
CN1CCN(C2CCN(c3ccc(Nc4nc(N[C@H]5C[C@@H](O)C5)c(-c5cc[nH]n5)nc4C(N)=O)cc3)CC2)CC1 [compound 614]	+++ (+++ indicates an inhibition greater than 50%.)
COc1cc(Nc2nc(NC3CCOCC3)c(-c3ccccc3)nc2C(N)=O)ccc1N1CCC(N2CCN(C)CC2)CC1 [compound 112]	+ (+ indicates an inhibition less than or equal to 20%)
CN1CCN(C2CCN(c3ccc(Nc4nc(NC5COC5)c(-c5cccc6[nH]ccc56)nc4C(N)=O)cc3F)CC2)CC1 [compound 595]	+++ (+++ indicates an inhibition greater than 50%.)
CN1CCN(C2CCN(c3ccc(Nc4nc(Oc5ccccc5)c(-c5ccccc5)nc4C(N)=O)cc3)CC2)CC1 [compound 6]	+ (+ indicates an inhibition less than or equal to 20%)

Structure (SMILES)	EGFR (del19/T790M/C797S) inhibition (%) (0.3 nM compound)
CN1CCN(C2CCN(c3ccc(Nc4nc(NCC(C)(C)O)c(-c5cccc6[nH]ccc56)nc4C(N)=O)cc3F)CC2)CC1 [compound 537]	+++ (+++ indicates an inhibition greater than 50%.)
CN1CCN(C2CCN(c3ccc(Nc4nc(NC5CC5)c(-c5ccncc5)nc4C(N)=O)cc3F)CC2)CC1 [compound 632]	+++ (+++ indicates an inhibition greater than 50%.)
CN1CCN(C2CCN(c3ccc(Nc4nc(N[C@H]5CC[C@@H](O)CC5)c(-c5ccccc5)nc4C(N)=O)cc3)CC2)CC1 [compound 24]	++ (++ indicates an inhibition from 20% to 50%)
CN1CCN(C2CCN(c3ccc(Nc4nc(NC5CCOCC5)c(-c5ccc(F)cc5)nc4C(N)=O)cc3)CC2)CC1 [compound 64]	+ (+ indicates an inhibition less than or equal to 20%)
COc1cc(-c2nc(C(N)=O)c(Nc3ccc(N4CCC(N5CCN(C)CC5)CC4)cc3)nc2NC2CCOCC2)ccn1 [compound 67]	+ (+ indicates an inhibition less than or equal to 20%)
CN1CCN(C2CCN(c3ccc(Nc4nc(NC5CCOCC5)c(-c5ccccc5CO)nc4C(N)=O)cc3)CC2)CC1 [compound 71]	+ (+ indicates an inhibition less than or equal to 20%)
CN1CCN(C2CCN(c3ccc(Nc4nc(NC5CCCC5)c(-c5ccccc5)nc4C(N)=O)cc3)CC2)CC1 [compound 9]	+ (+ indicates an inhibition less than or equal to 20%)
CN1CCN(C2CCN(c3ccc(Nc4nc(N[C@@H]5CCC[C@@H]5O)c(-c5ccccc5)nc4C(N)=O)cc3)CC2)CC1 [compound 133]	++ (++ indicates an inhibition from 20% to 50%)
CN1CCN(C2CCN(c3ccc(Nc4nc(NC5CCC5)c(-c5ccncc5)nc4C(N)=O)cc3)CC2)CC1 [compound 638]	+++ (+++ indicates an inhibition greater than 50%.)
CN1CCN(C2CCN(c3ccc(Nc4nc(N5CCCC5)c(-c5ccccc5)nc4C(N)=O)cc3)CC2)CC1 [compound 17]	+ (+ indicates an inhibition less than or equal to 20%)
Cc1cnccc1-c1nc(C(N)=O)c(Nc2ccc(N3CCC(N4CCN(C)CC4)CC3)cc2)nc1NC1CCOCC1 [compound 56]	+ (+ indicates an inhibition less than or equal to 20%)
CN1CCN(C2CCN(c3ccc(Nc4nc(N[C@H]5CCOC5)c(-c5ccncc5)nc4C(N)=O)cc3F)CC2)CC1 [compound 645]	+++ (+++ indicates an inhibition greater than 50%.)
CN1CCN(C2CCN(c3ccc(Nc4nc(NC5CCCC5)c(-c5ccncc5)nc4C(N)=O)cc3F)CC2)CC1 [compound 641]	+++ (+++ indicates an inhibition greater than 50%.)
CN1CCN(C2CCN(c3ccc(Nc4nc(NC5CCOCC5)c(-c5ccncc5F)nc4C(N)=O)cc3)CC2)CC1 [compound 103]	++ (++ indicates an inhibition from 20% to 50%)
CN1CCN(C2CCN(c3ccc(Nc4nc(NCCCS(C)(=O)=O)c(-c5ccccc5)nc4C(N)=O)cc3)CC2)CC1 [compound 27]	+ (+ indicates an inhibition less than or equal to 20%)
CN1CCN(C2CCN(c3ccc(Nc4nc(NC5CC5)c(-c5cc[nH]n5)nc4C(N)=O)cc3F)CC2)CC1 [compound 626]	+++ (+++ indicates an inhibition greater than 50%.)
